*1 amine or outer side, *2 acyl side, *3 side chain or, on linkers, in order; H or OH if unused. Where a SMILES comes first, the peptide text is derived from it. Bridges are numbered along the chain shown (N, C = ends). The star is where a group is joined. C20 diacid = O=C(O)CCCCCCCCCCCCCCCCCCC(=O)*; γGlu = O=C(O)[C@H](CCC(=O)[*:2])N[*:1]; AEEA = NCCOCCOCC(=O)O
Target: T1, Amylin 3(a) receptor (human calcitonin receptor (CTa) and RAMP-3) (Homo sapiens, UniProt O60896+P30988)
T1 construct: expressed in transfected cells; host or cells: BHK570 cells, stably transfected with a CRE-luciferase reporter
T1 sequence (O60896 24-148): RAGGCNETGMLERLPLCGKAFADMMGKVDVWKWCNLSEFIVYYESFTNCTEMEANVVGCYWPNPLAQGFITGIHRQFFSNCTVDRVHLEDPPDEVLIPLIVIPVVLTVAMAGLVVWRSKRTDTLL
T1 sequence (P30988 25-474): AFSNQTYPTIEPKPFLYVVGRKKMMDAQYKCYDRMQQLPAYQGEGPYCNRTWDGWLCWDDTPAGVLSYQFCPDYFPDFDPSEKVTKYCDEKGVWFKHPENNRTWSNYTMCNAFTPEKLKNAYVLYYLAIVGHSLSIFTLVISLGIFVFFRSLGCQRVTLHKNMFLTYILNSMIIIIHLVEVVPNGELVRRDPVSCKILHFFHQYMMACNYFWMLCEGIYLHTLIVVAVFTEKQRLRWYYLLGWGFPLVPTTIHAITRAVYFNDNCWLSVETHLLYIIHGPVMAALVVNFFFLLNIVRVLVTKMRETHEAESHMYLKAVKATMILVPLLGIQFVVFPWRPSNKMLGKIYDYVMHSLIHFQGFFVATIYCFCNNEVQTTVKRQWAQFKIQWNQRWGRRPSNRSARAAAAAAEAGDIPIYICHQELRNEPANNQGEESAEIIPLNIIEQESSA
Experiment: Luciferase assay (III), BHK Amylin 3(a)//CRE-luc cells
Assay type: cell-based
Conditions: BHK cells with Amylin 3(a) receptor and CRE luciferase reporter, 4 hours incubation; read-out: Potency Luciferase
How it was run: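 BHK570 cells stably expressing CTa, RAMP-3 and a CRE-luciferase reporter, seeded at about 20,000 cells/well and grown overnight. Cells were exposed to standard or sample for 4 h at 37° C in phenol red-free DMEM with 10% FBS and 10 mM Hepes, pH 7,4. Luminescence was read after 30 min LucLite at room temperature.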

EC50 [nM]	Compound
0.1	CC[C@H](C)[C@H](NC(=O)[C@@H]1CCCN1C(=O)CNC(=O)[C@H](Cc1ccccc1)NC(=O)[C@H](CC(N)=O)NC(=O)[C@H](CC(N)=O)NC(=O)[C@H](CO)NC(=O)[C@H](CO)NC(=O)[C@H](Cc1c[nH]cn1)NC(=O)[C@H](Cc1c[nH]cn1)NC(=O)[C@H](CC(C)C)NC(=O)[C@H](Cc1ccccc1)NC(=O)[C@H](CC(N)=O)NC(=O)[C@H](C)NC(=O)[C@H](CC(C)C)NC(=O)[C@H](CCCNC(=N)N)NC(=O)[C@H](CCC(N)=O)NC(=O)[C@@H](NC(=O)[C@H](C)NC(=O)[C@@H]1CSSC[C@H](NC(=O)COCCOCCNC(=O)CC[C@H](NC(=O)CCCCCCCCCCCCCCCCCCC(=O)O)C(=O)O)C(=O)N[C@@H](CC(N)=O)C(=O)N[C@@H]([C@@H](C)O)C(=O)N[C@@H](C)C(=O)N[C@@H]([C@@H](C)O)C(=O)N1)[C@@H](C)O)C(=O)N[C@@H](CC(C)C)C(=O)N1CCC[C@H]1C(=O)N1CCC[C@H]1C(=O)N[C@H](C(=O)N[C@@H](CC(N)=O)C(=O)N[C@H](C(=O)NCC(=O)N[C@@H](CO)C(=O)N[C@@H](CC(N)=O)C(=O)N[C@H](C(=O)N[C@@H](Cc1ccc(O)cc1)C(N)=O)[C@@H](C)O)C(C)C)[C@@H](C)O [Example 16, N-alpha-[2-(2-{2-[4-(S)-Carboxy-4-(19-carboxynonadecanoylamino)butyrylamino]ethoxy}ethoxy)acetyl]-[His17]-pramlintide (2-37)] ({C20 diacid-γGlu-AEEA}-CNTATCATQRLANFLHHSSNNFGPILPPTNVGSNTY-NH2; disulfide 1-6)
0.1	CC[C@H](C)[C@H](NC(=O)[C@@H]1CCCN1C(=O)CNC(=O)[C@H](Cc1ccccc1)NC(=O)[C@H](CC(N)=O)NC(=O)[C@H](CC(N)=O)NC(=O)[C@H](CO)NC(=O)[C@H](CO)NC(=O)[C@H](Cc1c[nH]cn1)NC(=O)[C@H](Cc1c[nH]cn1)NC(=O)[C@H](CC(C)C)NC(=O)[C@H](Cc1ccccc1)NC(=O)[C@H](CC(=O)O)NC(=O)[C@H](C)NC(=O)[C@H](CC(C)C)NC(=O)[C@H](CCCNC(=N)N)NC(=O)[C@H](CCC(N)=O)NC(=O)[C@@H](NC(=O)[C@H](C)NC(=O)[C@@H]1CSSC[C@H](NC(=O)CC[C@H](NC(=O)CCCCCCCCCCCCCCCCCCC(=O)O)C(=O)O)C(=O)N[C@@H](CC(N)=O)C(=O)N[C@@H]([C@@H](C)O)C(=O)N[C@@H](C)C(=O)N[C@@H]([C@@H](C)O)C(=O)N1)[C@@H](C)O)C(=O)N[C@@H](CC(C)C)C(=O)N1CCC[C@H]1C(=O)N1CCC[C@H]1C(=O)N[C@H](C(=O)N[C@@H](CC(N)=O)C(=O)N[C@H](C(=O)NCC(=O)N[C@@H](CO)C(=O)N[C@@H](CC(N)=O)C(=O)N[C@H](C(=O)N[C@@H](Cc1ccc(O)cc1)C(N)=O)[C@@H](C)O)C(C)C)[C@@H](C)O [Example 43, N-alpha-[(S)-4-Carboxy-4-(19-carboxynonadecanoylamino)butyryl]-[Asp14,His17]-pramlintide (2-37)] ({C20 diacid-γGlu}-CNTATCATQRLADFLHHSSNNFGPILPPTNVGSNTY-NH2; disulfide 1-6)
0.6	CC(C)C[C@H](NC(=O)[C@H](CCCNC(=N)N)NC(=O)[C@H](CCC(N)=O)NC(=O)[C@@H](NC(=O)[C@H](C)NC(=O)[C@@H]1CSSC[C@H](NC(=O)[C@H](CCC(=O)O)NC(=O)[C@H](CCCNC(=N)N)NC(=O)[C@H](CCC(=O)O)NC(=O)CC[C@H](NC(=O)CCCCCCCCCCCCCCCCCCC(=O)O)C(=O)O)C(=O)N[C@@H](CC(N)=O)C(=O)N[C@@H]([C@@H](C)O)C(=O)N[C@@H](C)C(=O)N[C@@H]([C@@H](C)O)C(=O)N1)[C@@H](C)O)C(=O)N[C@@H](C)C(=O)N[C@@H](CC(=O)O)C(=O)N[C@@H](Cc1ccccc1)C(=O)N[C@@H](CC(C)C)C(=O)N[C@@H](Cc1c[nH]cn1)C(=O)N[C@@H](Cc1c[nH]cn1)C(=O)N[C@@H](CO)C(=O)N[C@@H](CO)C(=O)N[C@@H](CC(N)=O)C(=O)N[C@@H](CC(N)=O)C(=O)N[C@@H](Cc1ccccc1)C(=O)NCC(=O)N[C@@H](C)C(=O)N1CCC[C@H]1C(=O)N[C@@H](CC(C)C)C(=O)N[C@@H](CO)C(=O)N[C@@H](CO)C(=O)N[C@H](C(=O)N[C@@H](CC(N)=O)C(=O)N[C@H](C(=O)NCC(=O)N[C@@H](CO)C(=O)N[C@@H](CC(N)=O)C(=O)N[C@H](C(=O)N[C@@H](Cc1ccc(O)cc1)C(N)=O)[C@@H](C)O)C(C)C)[C@@H](C)O [Example 42, N-alpha-[(S)-4-Carboxy-4-(19-carboxynonadecanoylamino)butyryl]-Glu-Arg-[Glu1,Asp14,His17,Ala25,Pro26,Ser28,Ser29]-pramlintide] ({C20 diacid-γGlu}-ERECNTATCATQRLADFLHHSSNNFGAPLSSTNVGSNTY-NH2; disulfide 4-9)
8	CC[C@H](C)[C@H](NC(=O)[C@@H]1CCCN1C(=O)CNC(=O)[C@H](Cc1ccccc1)NC(=O)[C@H](CC(N)=O)NC(=O)[C@H](CC(N)=O)NC(=O)[C@H](CO)NC(=O)[C@H](CO)NC(=O)[C@H](Cc1c[nH]cn1)NC(=O)[C@@H]1CCCN1C(=O)[C@H](CC(C)C)NC(=O)[C@H](Cc1ccccc1)NC(=O)[C@H](CC(N)=O)NC(=O)[C@H](C)NC(=O)[C@H](CC(C)C)NC(=O)[C@H](CCCNC(=N)N)NC(=O)[C@H](CCC(N)=O)NC(=O)[C@@H](NC(=O)[C@H](C)NC(=O)[C@@H]1CSSC[C@H](NC(=O)CC[C@H](NC(=O)CCCCCCCCCCCCCCCCCCC(=O)O)C(=O)O)C(=O)N[C@@H](CC(N)=O)C(=O)N[C@@H]([C@@H](C)O)C(=O)N[C@@H](C)C(=O)N[C@@H]([C@@H](C)O)C(=O)N1)[C@@H](C)O)C(=O)N[C@@H](CC(C)C)C(=O)N1CCC[C@H]1C(=O)N1CCC[C@H]1C(=O)N[C@H](C(=O)N[C@@H](CC(N)=O)C(=O)N[C@H](C(=O)NCC(=O)N[C@@H](CO)C(=O)N[C@@H](CC(N)=O)C(=O)N[C@H](C(=O)N[C@@H](Cc1ccc(O)cc1)C(N)=O)[C@@H](C)O)C(C)C)[C@@H](C)O [Example 15, N-alpha-[(S)-4-Carboxy-4-(19-carboxynonadecanoylamino)butyryl]-[Pro17]-pramlintide (2-37)] ({C20 diacid-γGlu}-CNTATCATQRLANFLPHSSNNFGPILPPTNVGSNTY-NH2; disulfide 1-6)
0.1	CC[C@H](C)[C@H](NC(=O)[C@@H]1CCCN1C(=O)CNC(=O)[C@H](Cc1ccccc1)NC(=O)[C@H](CC(N)=O)NC(=O)[C@H](CCC(N)=O)NC(=O)[C@H](CO)NC(=O)[C@H](CO)NC(=O)[C@H](Cc1c[nH]cn1)NC(=O)[C@H](CCCNC(=N)N)NC(=O)[C@H](CC(C)C)NC(=O)[C@H](Cc1ccccc1)NC(=O)[C@H](CC(N)=O)NC(=O)[C@H](C)NC(=O)[C@H](CC(C)C)NC(=O)[C@H](CCCNC(=N)N)NC(=O)[C@H](CCC(N)=O)NC(=O)[C@@H](NC(=O)[C@H](C)NC(=O)[C@@H]1CSSC[C@H](NC(=O)[C@H](CCCNC(=N)N)NC(=O)[C@H](Cc2c[nH]cn2)NC(=O)[C@H](Cc2c[nH]cn2)NC(=O)COCCOCCNC(=O)CC[C@H](NC(=O)CCCCCCCCCCCCCCCCCCC(=O)O)C(=O)O)C(=O)N[C@@H](CC(N)=O)C(=O)N[C@@H]([C@@H](C)O)C(=O)N[C@@H](C)C(=O)N[C@@H]([C@@H](C)O)C(=O)N1)[C@@H](C)O)C(=O)N[C@@H](CC(C)C)C(=O)N1CCC[C@H]1C(=O)N1CCC[C@H]1C(=O)N[C@H](C(=O)N[C@@H](CC(N)=O)C(=O)N[C@H](C(=O)NCC(=O)N[C@@H](CO)C(=O)N[C@@H](CC(N)=O)C(=O)N[C@H](C(=O)N[C@@H](Cc1ccc(O)cc1)C(N)=O)[C@@H](C)O)C(C)C)[C@@H](C)O [Example 65, N-alpha-[2-(2-{2-[4-(S)-Carboxy-4-(19-carboxynonadecanoylamino)butyrylamino]ethoxy}ethoxy)acetyl]-His-His-[Arg1,Arg17,Gln21]-pramlintide] ({C20 diacid-γGlu-AEEA}-HHRCNTATCATQRLANFLRHSSQNFGPILPPTNVGSNTY-NH2; disulfide 4-9)
0.2	CC[C@H](C)[C@H](NC(=O)[C@@H]1CCCN1C(=O)CNC(=O)[C@H](Cc1ccccc1)NC(=O)[C@H](CC(N)=O)NC(=O)[C@H](CC(N)=O)NC(=O)[C@H](CO)NC(=O)[C@H](CO)NC(=O)[C@H](Cc1c[nH]cn1)NC(=O)[C@H](Cc1c[nH]cn1)NC(=O)[C@H](CC(C)C)NC(=O)[C@H](Cc1ccccc1)NC(=O)[C@H](CC(N)=O)NC(=O)[C@H](C)NC(=O)[C@H](CC(C)C)NC(=O)[C@H](CCCNC(=N)N)NC(=O)[C@H](CCC(N)=O)NC(=O)[C@@H](NC(=O)[C@H](C)NC(=O)[C@@H]1CSSC[C@H](NC(=O)[C@H](CCC(=O)O)NC(=O)CC[C@H](NC(=O)CCCCCCCCCCCCCCCCCCC(=O)O)C(=O)O)C(=O)N[C@@H](CC(N)=O)C(=O)N[C@@H]([C@@H](C)O)C(=O)N[C@@H](C)C(=O)N[C@@H]([C@@H](C)O)C(=O)N1)[C@@H](C)O)C(=O)N[C@@H](CC(C)C)C(=O)N1CCC[C@H]1C(=O)N1CCC[C@H]1C(=O)N[C@H](C(=O)N[C@@H](CC(N)=O)C(=O)N[C@H](C(=O)NCC(=O)N[C@@H](CO)C(=O)N[C@@H](CC(N)=O)C(=O)N[C@H](C(=O)N[C@@H](Cc1ccc(O)cc1)C(N)=O)[C@@H](C)O)C(C)C)[C@@H](C)O [Example 51, N-alpha-[(S)-4-Carboxy-4-(19-carboxynonadecanoylamino)butyryl]-[Glu 1,His17]-pramlintide] ({C20 diacid-γGlu}-ECNTATCATQRLANFLHHSSNNFGPILPPTNVGSNTY-NH2; disulfide 2-7)

From US8895504B2, “Amylin derivatives” (priority 2008, dated 2014)
